Data on seven compounds can be found in US8551721B2, “Bioluminescent detection of cyanohydroxy benzothiazole compounds” (Promega Corporation, priority 2008, dated 2013).

One series addresses T1, UGT 1A4 (Homo sapiens, UniProt P22310).
T1 construct: purchased BD Gentest; host or cells: insect cells (microsomes)
T1 sequence (P22310 29-534): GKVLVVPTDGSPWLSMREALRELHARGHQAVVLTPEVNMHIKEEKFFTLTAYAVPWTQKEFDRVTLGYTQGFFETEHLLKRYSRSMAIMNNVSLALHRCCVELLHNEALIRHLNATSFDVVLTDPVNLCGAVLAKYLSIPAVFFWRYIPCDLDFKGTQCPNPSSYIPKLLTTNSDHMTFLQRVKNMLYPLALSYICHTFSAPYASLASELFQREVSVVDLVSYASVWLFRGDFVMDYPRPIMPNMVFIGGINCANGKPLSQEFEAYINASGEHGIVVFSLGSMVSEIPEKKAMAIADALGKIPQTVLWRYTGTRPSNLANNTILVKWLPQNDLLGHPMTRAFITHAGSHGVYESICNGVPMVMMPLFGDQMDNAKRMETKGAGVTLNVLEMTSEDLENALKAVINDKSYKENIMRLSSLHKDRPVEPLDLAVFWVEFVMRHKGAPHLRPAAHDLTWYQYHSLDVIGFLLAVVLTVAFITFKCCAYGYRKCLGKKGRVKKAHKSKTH
The series can be described thus: UGT activity: utilization of substrate by recombinant UGT 1A4 Supersomes. The series is classed as biochemical. To be noted: 2 hour incubation at 37° C., plus vs minus UDPGA. The protocol:
The invention includes a method of determining activity of the uridine 5′-diphospho-glucuronosyltransferase (UDP-glucuronosyltransferase, or UGT) family enzymes in vitro. Briefly, UGT enzymes from overexpressed insect microsomes (Supersomes™, BD Gentest™) or animal tissue microsomes (Xenotech, BD Gentest™) were incubated with a cyanobenzothiazole substrate of the invention and the cofactor UDP-glucuronic acid (UDPGA) at 37° C. in buffer at physiological pH containing MgCl2 and alamethicin (typically, 50 mM TES, pH 7.5, 8 mM MgCl2, 4 mM UDPGA (Sigma) and 25 μg/mL alamethicin (Sigma)). Following the UGT enzyme reaction, an equal volume of P450-Glo Luciferin Detection Reagent (Promega) containing 15-30 mM D-cysteine-HCl.H2O (Sigma) was added and the plate was mixed and incubated at room temperature, typically for 20-30 minutes. P450-Glo Luciferin Detection Reagent can be prepared by dissolving a vial of Promega Luciferin Detection Reagent (Promega Part #V859B) with a vial of Promega P450-Glo Buffer (Promega Part #V865B).
(§1) During this incubation, the cysteine reacts with the cyanobenzathiozole substrate to yield a D-luciferin derivative. […] Therefore, activity of the UGT enzyme can be measured by analyzing the difference (lower or no output) in relative light units (RLU) of a sample in which glucuronidation occurs compared to a sample that was run under the same conditions with no added UDPGA cofactor.
In this example, a series of 12 recombinant UGTs expressed in insect microsomes (Supersomes™, BD Gentest™), as well as the control microsomes not expressing the UGT enzyme, were incubated with compound 3138, compound 3478, or compound 3165 as substrates, with or without the UDPGA co-factor. […]
Reactions were assembled in a white 96-well plate. […] After the incubation was completed, the plate was read on a Veritas™ luminometer (Turner BioSystems, Inc.; Sunnyvale, Calif.). […]

The next series deals with human liver microsomes. Put plainly: Utilization of compound 3165 by human liver, renal and intestinal microsomes. The series is classed as biochemical. To be noted: 2 hours at 37° C., 0.2 mg/mL microsomes, 50 μM compound. The protocol: (§2) The invention includes a method of determining activity of the uridine 5′-diphospho-glucuronosyltransferase (UDP-glucuronosyltransferase, or UGT) family enzymes in vitro. Briefly, UGT enzymes from overexpressed insect microsomes (Supersomes™, BD Gentest™) or animal tissue microsomes (Xenotech, BD Gentest™) were incubated with a cyanobenzothiazole substrate of the invention and the cofactor UDP-glucuronic acid (UDPGA) at 37° C. in buffer at physiological pH containing MgCl2 and alamethicin (typically, 50 mM TES, pH 7.5, 8 mM MgCl2, 4 mM UDPGA (Sigma) and 25 μg/mL alamethicin (Sigma)). […]
as §1
(§3) The ability of endogenously expressed UGT isozymes to utilize compounds 3138 and 3165 as substrates was determined in a similar manner to the assays with recombinant microsomes (Example 1). […]

The next series concerns mouse liver microsomes. Put plainly: Utilization of compound 3165 by mouse liver microsomes. Type of series: biochemical. Conditions: 2 hours at 37° C., 0.2 mg/mL microsomes, 50 μM compound. On the procedure: as §2, §1, §3
In general terms: Liver microsomes are a subcellular fraction often used to study metabolism.

The next series relates to rat liver microsomes. Put plainly: Utilization of compound 3165 by rat liver microsomes. Type of series: biochemical. To be noted: 2 hours at 37° C., 0.2 mg/mL microsomes, 50 μM compound. On the procedure:
as §2, §1, §3

Series [1] concerns endogenously expressed UGT isozymes in mammalian microsomes. The series can be described thus: Utilization of compounds by mammalian microsomes. Type of series: biochemical. To be noted: 0.2 mg/mL microsomes, 50 μM compound, reactions run for 2 hours. The protocol:
The invention includes a method of determining activity of the uridine 5′-diphospho-glucuronosyltransferase (UDP-glucuronosyltransferase, or UGT) family enzymes in vitro. […] Following the UGT enzyme reaction, an equal volume of P450-Glo Luciferin Detection Reagent (Promega) containing 15-30 mM D-cysteine-HCl.H2O (Sigma) was added and the plate was mixed and incubated at room temperature, typically for 20-30 minutes. P450-Glo Luciferin Detection Reagent can be prepared by dissolving a vial of Promega Luciferin Detection Reagent (Promega Part #V859B) with a vial of Promega P450-Glo Buffer (Promega Part #V865B).
as §1
Tissue microsomes were obtained from Xenotech LLC or BD Gentest.

Another series concerns the target T2, GST A1-1 (Homo sapiens, UniProt P08263).
T2 sequence (P08263 1-222): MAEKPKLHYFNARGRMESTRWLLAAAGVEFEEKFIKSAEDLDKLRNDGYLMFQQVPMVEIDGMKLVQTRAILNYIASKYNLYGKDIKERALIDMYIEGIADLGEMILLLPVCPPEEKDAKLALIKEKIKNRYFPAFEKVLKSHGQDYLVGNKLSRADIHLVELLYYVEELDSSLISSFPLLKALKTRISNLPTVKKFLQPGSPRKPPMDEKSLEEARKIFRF
The series can be described thus: Utilization of benzothiazole by GST A1-1. The series is classed as biochemical. Conditions: 55 minutes at room temperature; for light produced with GST A1-1 minus no enzyme, concentrated substrate: concentrated substrate solution (approximately 1 mg/mL diluted 1:100), glutathione; for light produced with GST A1-1 minus no enzyme, diluted substrate: substrate solution diluted 1:3.1, glutathione. On the procedure: (§4) A small amount of compound 934-37 was dissolved in DMSO to produce a solution approximately 1 mg/mL. This solution was diluted 1:100 (v/v) into 50 mM HEPES buffer pH 7.5 to produce a substrate solution. Twenty μL of this solution was placed in 10 wells of a 96 well white luminometer plate (Promega part Z3291), then the solution was diluted 1:3.1 and 20 μL of the dilution was placed into another 10 wells in the luminometer plate.
(§5) D-Cysteine, 4 mg (Sigma Chemical Corp.; C8005-1 g, 017K1034) was dissolved into 1 mL of 50 mM HEPES buffer pH 7.5, then 4 μL added to 4 of the wells containing the substrate solution and 4 of the wells with diluted substrate solution to convert compound 934-37 to the corresponding luciferin derivative. The structures of these compounds are shown below.
A sample of GST A1-1 (1.2 mg/mL) and 100 μL of 100 mM glutathione in water was diluted into 5 mL of 50 mM HEPES pH 7.5, then 25 μL added to: two of the wells with unconverted, concentrated compound 934-37; 2 wells with concentrated and converted compound 934-37; and two of the wells with unconverted, diluted compound 934-37 and 2 of the wells with converted, diluted compound 934-37.
(§6) Glutathione (100 μL of 100 mM glutathione) had been diluted to 5 mL with 50 mM HEPES buffer pH 7.5, then 25 μL added to the remaining wells of converted and unconverted compound 934-37 in concentrated and diluted solution.
(§7) After 55 minutes at room temperature, 4 μL of the D-cysteine solution above was added to all wells that had not received cysteine before, then 50 μL of P450 Glo Luciferin Detection Reagent (made by dissolving a vial of Promega Luciferin Detection Reagent (Promega Part #V859B) with a vial of Promega P450-Glo Buffer (Promega Part #V865B). The plate was then placed into a Glo Max luminometer (Promega Corp.) and the light read after 15 minutes of incubation. The values obtained were averaged and the average value of the light produced from the wells given no enzyme were then subtracted from the average of the light produced with enzyme.

Another series deals with T3, GST M1-1 (Homo sapiens, UniProt P09488).
T3 sequence (P09488 1-218): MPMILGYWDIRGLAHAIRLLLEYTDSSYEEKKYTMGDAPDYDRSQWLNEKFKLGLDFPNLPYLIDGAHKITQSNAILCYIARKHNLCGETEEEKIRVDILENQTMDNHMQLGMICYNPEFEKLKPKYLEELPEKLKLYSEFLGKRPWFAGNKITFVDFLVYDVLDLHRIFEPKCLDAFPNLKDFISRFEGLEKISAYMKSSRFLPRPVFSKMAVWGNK
Put plainly: Utilization of benzothiazole by GST M1-1. The series is classed as biochemical. Conditions: 55 minutes at room temperature; for light produced with GST M1-1 minus no enzyme, concentrated substrate: concentrated substrate solution (approximately 1 mg/mL diluted 1:100), glutathione; for light produced with GST M1-1 minus no enzyme, diluted substrate: substrate solution diluted 1:3.1, glutathione. On the procedure: as §4, §5
A sample of GST M1-1 (1.2 mg/mL) and 100 μL of 100 mM glutathione was diluted into 5 mL of 50 mM HEPES pH 7.5, then 25 μL added to: two of the wells with unconverted, concentrated compound 934-37; 2 wells with concentrated and converted compound 934-37; and two of the wells with unconverted, diluted compound 934-37 and 2 of the wells with converted, diluted compound 934-37.
as §6, §7

For the next series, the system named is UGT isozymes. To be noted: cited from earlier work; for Isozymes Modulated: isozymes currently reported in the literature to be modulated by the compound.

In the case of `Cc1cc(NCc2cccc(N)c2)cc2sc(C#N)nc12` [compound 3165], on UGT 1A4, the “utilization by UGT 1A4 (in words)” value was “only utilized by UGT 1A4”. Also, in the series on human liver microsomes, the “utilization of compound 3165: human liver vs human renal and intestinal microsomes” value is “much higher for human liver microsomes than either human renal or human intestinal microsomes”. Also, the “utilization of compound 3165 by mouse liver microsomes” value in the series on mouse liver microsomes was “Activity was also seen for both rat and mouse liver microsomes”. Further, in the series with rat liver microsomes, the “utilization of compound 3165 by rat liver microsomes” value is “Activity was also seen for both rat and mouse liver microsomes”. In series [1], the “rate of utilization of compound 3165 by mammalian microsomes (compared with compound 3138)” value is listed as “much slower”.
With `Cc1cc(S(=O)(=O)Oc2ccc3nc(C4=N[C@@H](C(=O)O)CS4)sc3c2)ccc1[N+](=O)[O-]` [converted compound 934-37], on GST A1-1, the “light produced with GST A1-1 minus no enzyme, concentrated substrate” value is on record as 6,410 RLU and the “light produced with GST A1-1 minus no enzyme, diluted substrate” value is given as 6,462 RLU. At GST M1-1, the “light produced with GST M1-1 minus no enzyme, concentrated substrate” value is 315,759 RLU and the “light produced with GST M1-1 minus no enzyme, diluted substrate” value is on record as 213,920 RLU.
`C=C[C@H]1C[N@@]2CC[C@H]1C[C@@H]2[C@@H](O)c1ccnc2ccc(OC)cc12` [Quinidine]: the “Isozymes Modulated” value with UGT isozymes was 2B7 and 2B15, others to a lesser extent.
As to `CC(C)c1nc(CN(C)C(=O)N[C@H](C(=O)N[C@@H](Cc2ccccc2)C[C@H](O)[C@H](Cc2ccccc2)NC(=O)OCc2cncs2)C(C)C)cs1` [Ritonavir], in the series on UGT isozymes (literature report), the “inhibition of UGT isozymes as reported in the literature” value is “inhibits UGT 1A 1 and 1A4, but has little effect on UGT 2B7”.
As to `O=c1cc(C(F)(F)F)c2ccc(O)cc2o1` [7-hydroxy-4-trifluoromethyl coumarin], the “Isozymes Modulated” value in the series with UGT isozymes is “Substrate for 1A1, 1A3, 1A6, 1A9, 2B7”.
Turning to `O=c1ccc2ccc(O)cc2o1` [Umbelliferne], the “Isozymes Modulated” value with UGT isozymes was “Substrate of most isozymes”.
In the case of `Cc1cc(S(=O)(=O)Oc2ccc3nc(C#N)sc3c2)ccc1[N+](=O)[O-]` [compound 934-37], at GST A1-1, the “light produced with GST A1-1 minus no enzyme, concentrated substrate” value is 164,400 RLU and the “light produced with GST A1-1 minus no enzyme, diluted substrate” value is reported as 195,021 RLU. Moreover, on GST M1-1, the “light produced with GST M1-1 minus no enzyme, concentrated substrate” value is on record as 41,212 RLU and the “light produced with GST M1-1 minus no enzyme, diluted substrate” value was 30,428 RLU.
